Test system: IMP-1-producing Pseudomonas aeruginosa
Experiment: Disk diffusion test: β-lactam agent disks placed 20 mm from a central compound (I) disk; growth inhibition zone radius measured
Format: cell-based
Settings: Muller-Hinton agar, overnight culture at 35° C.; for Ratio = Maximum/Minimum inhibition zone radius (degree of change in radius, A3/B3/C3): change caused by the compound (I) disk; for Inhibition zone radius, Maximum (A2/B2/C2): subzone on the compound (I) (disodium 2,3-diethylmaleate) disk side, subject to the metallo-β-lactamase inhibitor; for Inhibition zone radius, Minimum (A1/B1/C1): subzone on the side opposite to the compound (I) disk, not subject to the metallo-β-lactamase inhibitor
Excerpt: When the bacteria to be tested are MBL-producing bacteria, the shape of an inhibition zone formed around each β-lactam agent varies depending on the effect of the metallo-β-lactamase inhibitor (compound (I)). In this case, the inhibition zone formed around each β-lactam agent can be divided into two subzones (i.e., an inhibition subzone formed on the side opposite to the compound (I)-containing disk and an inhibition subzone formed on the compound (I)-containing disk side) by measurement along the center lines of the β-lactam agent-containing and compound (I)-containing disks (FIG. 1).
The inhibition subzone formed on the side opposite to the compound (I)-containing disk is not subject to the effect of the metallo-β-lactamase inhibitor. Thus, its radius can be minimized in the whole inhibition zone (e.g., the numerical value obtained here can be defined as “A1”, “B1” and “C1” for the β-lactam agents (A), (B) and (C), respectively (Table 1)). When no inhibition zone is formed, the radius of the disk can be used.
The inhibition subzone formed on the compound (I)-containing disk side is subject to the effect of the metallo-β-lactamase inhibitor. Thus, its radius can be maximized in the whole inhibition zone (e.g., the numerical value obtained here can be defined as “A2”, “B2” and “C2” for the β-lactam agents (A), (B) and (C), respectively (Table 1)). When no inhibition zone is formed, the radius of the disk can be used. Moreover, when the formed inhibition zone is wider than the distance between the disks, the distance from the center of the drug-containing disk to the compound (I)-containing disk can be used (e.g., “A2” in the flow 8 in the flowchart of FIG. 2 represents the distance from the center of the β-lactam agent (A)-containing disk to the compound (I)-containing disk).
The degree of change in the shape of the inhibition zone caused by the effect of the metallo-β-lactamase inhibitor can be measured as the ratio between the minimum and maximum radiuses of the inhibition zone, i.e., the degree of change in radius. For example, it can be calculated by dividing the maximum radius of the inhibition zone by the minimum radius thereof (e.g., this calculated value can be defined as “A3”, “B3”, and “C3”, respectively (Table 1)).
According to the disk diffusion method specified by CLSI, a Muller-Hinton agar medium was coated with a bacterial solution adjusted to McFarland standard turbidity of 0.5. No water droplet of the bacterial solution on the medium surface was confirmed, and round filter papers (diameter: approximately 6 mm) respectively containing 300 μg of a compound (I), 100 μg of biapenem as a drug (A), 100 μg of imipenem as a drug (B), and 300 μg of ceftazidime as a drug (C) were placed thereonto as drug-containing disks. The compound (I) used was a compound represented by the formula (I) wherein both R^1 and R^2 are an ethyl group, and M^1 is a sodium cation (disodium 2,3-diethylmaleate). The compound (I) was placed at the center of the agar medium, while the drugs (A) to (C) were placed such that the center of each disk was 20 mm distant from the center of the compound (I). After overnight culture at 35° C., the minimum and maximum radiuses of a growth inhibition zone around each disk were measured, and the degree of change in radius was calculated according to Table 1. The IMP or VIM MBL-producing bacteria were identified using a decision flow of FIG. 2.
In Example 2, bacteria to be tested were IMP-1-producing Pseudomonas aeruginosa. According to the disk diffusion method specified by CLSI, a Muller-Hinton agar medium was coated with the Pseudomonas aeruginosa, and disks were then placed thereonto.
In FIG. 4, the upper disk contained biapenem (BIPM) (A); the lower right disk contained imipenem (IPM) (B); the lower left disk contained ceftazidime (CAZ) (C); and the central disk was a compound (I)-containing disk. […]

SMILES | Ratio = Maximum/Minimum inhibition zone radius (degree of change in radius, A3/B3/C3) | Inhibition zone radius, Maximum (A2/B2/C2) [mm] | Inhibition zone radius, Minimum (A1/B1/C1) [mm]
C[C@@H](O)[C@H]1C(=O)N2C(C(=O)O)=C(SCCN=CN)C[C@H]12 [imipenem] | 2.2 | 14.0 | 6.5
C[C@@H](O)[C@H]1C(=O)N2C(C(=O)[O-])=C(SC3Cn4cnc[n+]4C3)[C@H](C)[C@H]12 (stereo partly drawn) [biapenem] | 2.9 | 16.0 | 5.5
CC(C)(O/N=C(\C(=O)N[C@@H]1C(=O)N2C(C(=O)[O-])=C(C[n+]3ccccc3)CS[C@H]12)c1csc(N)n1)C(=O)O [ceftazidime] | 4.1 | 14.5 | 3.5

Source: patent US8697382B2, “Method of identifying metallo-β-lactamase-producing bacteria” (Meiji Seika Pharma Co., Ltd., priority 2009, dated 2014)
